Laboratory results: patent US8642087B1, “Compounds and methods for reducing oxidative stress” (University of Kentucky Research Foundation, priority 2010, dated 2014)
Values after ≈ are worked out from the molar mass of the structure shown.

Columns and labels:
[1] = test system: HUVECs; experiment: H2O2-induced oxidative stress injury to HUVECs, cell viability by MTT assay; assay type: cell-based, human; conditions: for cell viability compared to untreated control cells: pre-treatment 2 hrs, then 500 μM H2O2, 24 hrs
Experimental: To assess the effect of H2O2-induced oxidative stress injury to HUVECs in the presence of PAβAE degradation products, cell viability was measured and used as a marker of the injury to the cells subsequent to exposure to the degradation products of PAβAE and H2O2. […] Cells were exposed to antioxidants at different concentrations and a final H2O2 concentration of 500 μM. 24 hrs later, cell viability was measured using MTT assay as described above.

[2] = test system: human umbilical vein endothelial cells (HUVECs); conditions: 24 h
Experimental: (§1) To further examine the properties of the PAβAE hydrogels and their ability to be used as a polymer that is capable of controllably releasing an antioxidant molecule, the cytotoxicity of PAβAE degradation products was measured. In this analysis, human umbilical vein endothelial cells (HUVECs) were first purchased from Lonza (Allendale, N.J.) and cultured in EGM-2 media with 2% fetal bovine serum at 37° C. in a humidified atmosphere of 5% CO2, with HUVECs in passages 3 to 5 then being used. To assess the cytotoxicity of the degradation products, the HUVECs were then treated with degradation products of the PAβAEs at different concentrations and a MTT assay was used to measure cell viability after treating cells with the different concentrations of PAβAE degradation products. Briefly, HUVECs were seeded onto a 96-well plate at a cell density of 35,000 cells/cm^2, and, 24 hrs later, cell media was replaced with treatment solutions. 24 hrs post treatment, treatment solution was removed, cells were washed twice in PBS, and 200 μL of 0.5 mg/ml MTT solution in cell media was added to each well. The 96-well plate was then incubated at 37° C. for 12 hrs and the cell media was gently removed from the wells. 100 μL of DMSO was added to each well to dissolve the formazan product. The absorbance intensity was recorded, at 570 nm for formazan and at 690 for background, using a Cary-50 Bio UV-Visible spectrophotometer equipped with a Cary 50 MPR microplate reader (Varian, Santa Clara, Calif.).
(§2) PAβAE degradation products were then freeze dried and dissolved in DMSO at a concentration of 100 mg/ml. These concentrated DMSO solutions were then used to prepare fresh dilute solutions of PAβAE degradation products in cell media. Cells were treated with these PAβAE solutions for their cytotoxicity and their effect on cellular oxidative stress levels. To prepare quercetin and curcumin solutions, antioxidants were dissolved in DMSO at a concentration of 10 mg/ml and diluted in cell media.

[3] = test system: HUVECs; conditions: literature, cited from earlier work
[4] = test system: human normal liver cells L-02; conditions: literature; cited from earlier work
[5] = in vitro; conditions: human
Experimental: as §1, §2

[6] = test system: HUVECs; experiment: HNE-induced oxidative stress injury to HUVEC monolayer, transendothelial electrical resistance (TEER); assay type: cell-based, human; conditions: 20 hours; degradation products 100 μg/mL alone; HNE 30 μM alone
Experimental: To assess the effect of 4-hydroxy-2-trans-nonenal (HNE)-induced oxidative stress injury to HUVECs in the presence of PAβAE degradation products, transendothelial electrical resistance (TEER) values were measured and used to monitor the permeability and injury of the cells subsequent to exposure to the degradation products of PAβAE and FINE. Briefly, HUVECs were seeded into 24 well plate Transwell inserts (Corning Costar Transwell Plates). Wells were rinsed with HBSS and media replaced every other day. TEER values (EVOM II reader, World Precision Instruments) were monitored every day until resistance stabilization after approximately 7 days. HUVECs were treated with degradation products of PAβAE, including 10% quercetin multiacrylate (QMA) and 10% curcumin multiacrylate (CMA), at a concentration of 100 μg/mL in the cell media for 1 hour. Following prophylactic incubation, and without removing PABAE degradation products, FINE was added to a final concentration 30 μM to induce oxidative injury. TEER was measured before cells were seeded, immediately before addition PABAE degradation products, and 20 hours following FINE incubation, which is consistent with maximum FINE induced injury. Change in TEER was calculated as shown below in Eq. 4. Change in TEER=(Ω20 hr−ΩTranswell insert)/(Ω0 hr−ΩTranswell insert) (4)

## O=c1c(O)c(-c2ccc(O)c(O)c2)oc2cc(O)cc(O)c12 [quercetin, Quercetin]
[1]
  cell viability compared to untreated control cells: 101.13 ± 3.8
[2]
  cytotoxicity (in words): toxicity to HUVECs was note observed up to a concentration of 100 μg/ml
[3]
  previously reported IC50 value for HUVECs: 18.4 µg/mL
[3]; read-out: previously reported IC50 value for HUVECs
  IC50: 61 µM
[4]
  IC50: 113 µM

## OO [H2O2, hydrogen peroxide]
[1]; Homo sapiens, HUVEC, 500 μM H2O2 only, 24 hrs, read-out: cell viability compared to untreated control cells
  viability at 500 µM: 72.9%

## COc1cc(/C=C/C(=O)CC(=O)/C=C/c2ccc(O)c(OC)c2)ccc1O [curcumin]
[1]
  cell viability compared to untreated control cells: 57.7 ± 1.6
[2]; 5 μg/ml
  cell death: 40%
[3]
  previously reported IC50 value for HUVECs: 10.8 µg/mL
[5]
  IC50 at 24 h: 6.8 µg/mL (≈ 18.5 µM)

## CCCCCC(O)/C=C/C=O (stereo not drawn) [HNE, 4-hydroxy-2-trans-nonenal]
[6]
  Change in TEER compared to the TEER measurement at 0 hours: 75±2
